Measurements published in the NIST ThermoML archive (doi:10.1021/je900124n).
Where “and” joins values, the source holds several entries; their conditions need not be identical. Equal values may be shown once.

Settings: Fluid (supercritical or subcritical phases), Buoyancy - hydrostatic balance with magnetic suspension - two sinkers

CCC [propane]
Settings | mass density
375 K, 4455 kPa | 148.081 kg/m3 [middle of 5 runs]
375 K, 4455.1 kPa | 148.084 kg/m3 and 148.085 kg/m3 and 148.081 kg/m3
375 K, 4456.1 kPa | 148.366 kg/m3 and 148.364 kg/m3 and 148.371 kg/m3
375 K, 4456.2 kPa | 148.361 kg/m3
375 K, 4568.9 kPa | 178.196 kg/m3 [middle of 4 runs]
375 K, 4569 kPa | 178.185 kg/m3
375 K, 4609.7 kPa | 197.026 kg/m3 and 197.015 kg/m3
375 K, 4609.8 kPa | 197.023 kg/m3 [middle of 5 runs]
375 K, 4630.9 kPa | 208.979 kg/m3
375 K, 4631 kPa | 208.963 kg/m3 and 208.962 kg/m3 and 208.991 kg/m3
375 K, 4631.1 kPa | 208.972 kg/m3
375 K, 4648.5 kPa | 219.668 kg/m3
375 K, 4648.6 kPa | 219.65 kg/m3 [middle of 6 runs]
375 K, 4648.7 kPa | 219.656 kg/m3
375 K, 4660.8 kPa | 226.495 kg/m3
375 K, 4660.9 kPa | 226.503 kg/m3 and 226.483 kg/m3
375 K, 4661 kPa | 226.54 kg/m3
375 K, 4694.5 kPa | 243.594 kg/m3 and 243.602 kg/m3 and 243.583 kg/m3
375 K, 4694.6 kPa | 243.603 kg/m3 [middle of 4 runs]
375 K, 4761.6 kPa | 265.09 kg/m3
375 K, 4761.7 kPa | 265.094 kg/m3 and 265.087 kg/m3
375 K, 4761.8 kPa | 265.087 kg/m3
375 K, 4761.9 kPa | 265.101 kg/m3
375 K, 4846.9 kPa | 281.14 kg/m3 [middle of 4 runs]
375 K, 4847.1 kPa | 281.138 kg/m3 and 281.143 kg/m3
375 K, 5843.8 kPa | 337.161 kg/m3
375 K, 5843.9 kPa | 337.161 kg/m3
375 K, 5844 kPa | 337.161 kg/m3 and 337.159 kg/m3
375 K, 5844.1 kPa | 337.162 kg/m3
375 K, 5844.2 kPa | 337.16 kg/m3 and 337.158 kg/m3
375.01 K, 4661 kPa | 226.502 kg/m3
375.01 K, 4847.1 kPa | 281.141 kg/m3 and 281.139 kg/m3
380 K, 320.18 kPa | 4.576 kg/m3
380 K, 320.19 kPa | 4.576 kg/m3
380 K, 569.88 kPa | 8.3091 kg/m3 and 8.3093 kg/m3
380 K, 569.89 kPa | 8.3092 kg/m3 and 8.3093 kg/m3
380 K, 954.79 kPa | 14.3809 kg/m3
380 K, 954.8 kPa | 14.3809 kg/m3
380 K, 954.81 kPa | 14.3809 kg/m3
380 K, 1441 kPa | 22.71 kg/m3
380 K, 1441.3 kPa | 22.7154 kg/m3
380 K, 1442 kPa | 22.7271 kg/m3
380 K, 1442.3 kPa | 22.733 kg/m3
380 K, 1442.6 kPa | 22.7383 kg/m3
380 K, 2208.6 kPa | 37.8037 kg/m3 [middle of 4 runs]
380 K, 2208.8 kPa | 37.8087 kg/m3
380 K, 3020.8 kPa | 57.7697 kg/m3 and 57.7694 kg/m3
380 K, 3020.9 kPa | 57.7728 kg/m3
380 K, 3021 kPa | 57.7733 kg/m3
380 K, 3021.1 kPa | 57.7794 kg/m3
380 K, 3513.2 kPa | 73.3301 kg/m3
380 K, 3513.4 kPa | 73.3336 kg/m3
380 K, 3513.5 kPa | 73.3364 kg/m3
380 K, 3513.6 kPa | 73.3391 kg/m3 and 73.3404 kg/m3 and 73.3402 kg/m3
380 K, 4131.9 kPa | 100.514 kg/m3
380 K, 4132 kPa | 100.514 kg/m3
380 K, 4132.1 kPa | 100.516 kg/m3 and 100.515 kg/m3
380 K, 4703.8 kPa | 148.075 kg/m3
